According to patent US12686873B2, “Plants having increased tolerance to herbicides” (priority 2012, dated 2026):
“And” between values parts separate entries of the source, which are not always exact repeats. Equal entries are not always repeated.

Key:
Experiment in all cases: biochemical
[1] = target: wild type and amino acid substituted PPO enzyme (Amaranthus tuberculatus, UniProt Q0NZW5)
[2] = target: wild type and amino acid substituted PPO enzyme (Amaranthus tuberculatus, UniProt Q0NZW9, F204I/F420V/F457M/L400A/T208S); details: IC50 (M)
[3] = target: wild type and amino acid substituted PPO enzyme (Amaranthus tuberculatus, UniProt Q0NZW9, F204I/F420V/T208S); details: IC50 (M)
[4] = target: wild type and amino acid substituted PPO enzyme (Amaranthus tuberculatus, UniProt Q0NZW9, L397D/T208S); details: IC50 (M)
[5] = target: wild type and amino acid substituted PPO enzyme (Amaranthus tuberculatus, UniProt Q0NZW9, F204I/L400A); details: IC50 (M)
[6] = target: wild type and amino acid substituted PPO enzyme (Amaranthus tuberculatus, UniProt Q0NZW9, F420V/F457M); details: IC50 (M)
[7] = target: wild type and amino acid substituted PPO enzyme (Amaranthus tuberculatus, UniProt Q0NZW9, F420M/L397S); details: IC50 (M)
[8] = target: wild type and amino acid substituted PPO enzyme (Amaranthus tuberculatus, UniProt Q0NZW9, F457M/T208S); details: IC50 (M)
[9] = target: wild type and amino acid substituted PPO enzyme (Amaranthus tuberculatus, UniProt Q0NZW9, F420V/L397Q); details: IC50 (M)
[10] = target: wild type and amino acid substituted PPO enzyme (Amaranthus tuberculatus, UniProt Q0NZW9, F204I/F420A/F457M/L400A); details: IC50 (M)
[11] = target: wild type and amino acid substituted PPO enzyme (Amaranthus tuberculatus, UniProt Q0NZW9, F204I/L397D/T208S); details: IC50 (M)
[12] = target: wild type and amino acid substituted PPO enzyme (Amaranthus tuberculatus, UniProt Q0NZW9, F204I/F420V); details: IC50 (M)
[13] = target: wild type and amino acid substituted PPO enzyme (Amaranthus tuberculatus, UniProt Q0NZW9, F457M/L400A/T208S); details: IC50 (M)
[14] = target: wild type and amino acid substituted PPO enzyme (Amaranthus tuberculatus, UniProt Q0NZW9, F420V/R128A/T208S); details: IC50 (M)
[15] = target: wild type and amino acid substituted PPO enzyme (Amaranthus tuberculatus, UniProt Q0NZW9, F420M/L397V); details: IC50 (M)
[16] = target: wild type and amino acid substituted PPO enzyme (Amaranthus tuberculatus, UniProt Q0NZW9, F204I/L400A/T208S); details: IC50 (M)
[17] = target: wild type and amino acid substituted PPO enzyme (Amaranthus tuberculatus, UniProt Q0NZW9, F204I/L397D/L400A/T208S); details: IC50 (M)
[18] = target: wild type and amino acid substituted PPO enzyme (Amaranthus tuberculatus, UniProt Q0NZW9, F204I/F420V/F457M/R128A); details: IC50 (M)
[19] = target: wild type and amino acid substituted PPO enzyme (Amaranthus tuberculatus, UniProt Q0NZW9, F204I/F457M/T208S); details: IC50 (M)
[20] = target: wild type and amino acid substituted PPO enzyme (Amaranthus tuberculatus, UniProt Q0NZW9, F420V/L397V); details: IC50 (M)
[21] = target: wild type and amino acid substituted PPO enzyme (Amaranthus tuberculatus, UniProt Q0NZW9, F204I/F420V/F457M); details: IC50 (M)
[22] = target: wild type and amino acid substituted PPO enzyme (Amaranthus tuberculatus, UniProt Q0NZW9, F204I/F420V/F457M/T208S); details: IC50 (M)
[23] = target: wild type and amino acid substituted PPO enzyme (Amaranthus tuberculatus, UniProt Q0NZW9, F204I/F457M); details: IC50 (M)
[24] = target: wild type and amino acid substituted PPO enzyme (Amaranthus tuberculatus, UniProt Q0NZW9, F420M/L397A); details: IC50 (M)
[25] = target: wild type and amino acid substituted PPO enzyme (Amaranthus tuberculatus, UniProt Q0NZW9, F420V/L397C); details: IC50 (M)
[26] = target: wild type and amino acid substituted PPO enzyme (Amaranthus tuberculatus, UniProt Q0NZW9, F204I/F420V/F457M/L400A/R128A); details: IC50 (M)
[27] = target: wild type and amino acid substituted PPO enzyme (Amaranthus tuberculatus, UniProt Q0NZW9, F204I/F420V/L400A); details: IC50 (M)
[28] = target: wild type and amino acid substituted PPO enzyme (Amaranthus tuberculatus, UniProt Q0NZW9, F457M/L400A); details: IC50 (M)
[29] = target: wild type and amino acid substituted PPO enzyme (Amaranthus tuberculatus, UniProt Q0NZW9, F420V/T208S); details: IC50 (M)
[30] = target: wild type and amino acid substituted PPO enzyme (Amaranthus tuberculatus, UniProt Q0NZW9, L397D/R128A); details: IC50 (M)
[31] = target: wild type and amino acid substituted PPO enzyme (Amaranthus tuberculatus, UniProt Q0NZW9, F420V/L397S); details: IC50 (M)
[32] = target: wild type and amino acid substituted PPO enzyme (Amaranthus tuberculatus, UniProt Q0NZW9, F420M/L397D); details: IC50 (M)
[33] = target: wild type and amino acid substituted PPO enzyme (Amaranthus tuberculatus, UniProt Q0NZW9, F420V/F457M/T208S); details: IC50 (M)
[34] = target: wild type and amino acid substituted PPO enzyme (Amaranthus tuberculatus, UniProt Q0NZW9, F420M/L397C); details: IC50 (M)
[35] = target: wild type and amino acid substituted PPO enzyme (Amaranthus tuberculatus, UniProt Q0NZW9, F204I/T208S); details: IC50 (M)
[36] = target: wild type and amino acid substituted PPO enzyme (Amaranthus tuberculatus, UniProt Q0NZW9, F420V/L397T); details: IC50 (M)
[37] = target: wild type and amino acid substituted PPO enzyme (Amaranthus tuberculatus, UniProt Q0NZW9, F204I/F457M/L400A/T208S); details: IC50 (M)

Chain of wild type and amino acid substituted PPO enzyme (Amaranthus tuberculatus, UniProt Q0NZW9, F204I/F457M/T208S) (Q0NZW9 1-534 F204I/T208S/F457M): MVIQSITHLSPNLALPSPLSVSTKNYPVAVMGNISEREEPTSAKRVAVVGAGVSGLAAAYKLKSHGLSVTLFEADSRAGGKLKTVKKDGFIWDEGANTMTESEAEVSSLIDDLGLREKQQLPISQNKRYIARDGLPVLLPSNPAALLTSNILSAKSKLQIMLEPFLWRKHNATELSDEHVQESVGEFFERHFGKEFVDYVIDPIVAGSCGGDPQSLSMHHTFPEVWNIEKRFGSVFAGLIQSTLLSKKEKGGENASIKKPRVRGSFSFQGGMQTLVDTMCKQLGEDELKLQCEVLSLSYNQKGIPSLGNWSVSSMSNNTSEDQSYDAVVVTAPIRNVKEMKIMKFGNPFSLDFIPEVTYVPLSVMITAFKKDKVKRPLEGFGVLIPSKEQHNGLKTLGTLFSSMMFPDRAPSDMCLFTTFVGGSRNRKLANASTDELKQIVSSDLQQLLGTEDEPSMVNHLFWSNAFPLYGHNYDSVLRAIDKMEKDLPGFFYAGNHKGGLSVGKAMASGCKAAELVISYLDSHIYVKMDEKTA
Chain of wild type and amino acid substituted PPO enzyme (Amaranthus tuberculatus, UniProt Q0NZW9, F420V/T208S) (Q0NZW9 1-534 T208S/F420V): as the sequence (Q0NZW9 1-534 F204I/T208S/F457M) above, with I204F, F420V, M457F counted along it
Chain of wild type and amino acid substituted PPO enzyme (Amaranthus tuberculatus, UniProt Q0NZW9, L397D/T208S) (Q0NZW9 1-534 T208S/L397D): as the sequence (Q0NZW9 1-534 F204I/T208S/F457M) above, with I204F, L397D, M457F counted along it
Chain of wild type and amino acid substituted PPO enzyme (Amaranthus tuberculatus, UniProt Q0NZW9, F420V/L397Q) (Q0NZW9 1-534 L397Q/F420V): as the sequence (Q0NZW9 1-534 F204I/T208S/F457M) above, with I204F, S208T, L397Q, F420V, M457F counted along it
Chain of wild type and amino acid substituted PPO enzyme (Amaranthus tuberculatus, UniProt Q0NZW9, F457M/T208S) (Q0NZW9 1-534 T208S/F457M): as the sequence (Q0NZW9 1-534 F204I/T208S/F457M) above, with I204F counted along it
Chain of wild type and amino acid substituted PPO enzyme (Amaranthus tuberculatus, UniProt Q0NZW9, F204I/T208S) (Q0NZW9 1-534 F204I/T208S): as the sequence (Q0NZW9 1-534 F204I/T208S/F457M) above, with M457F counted along it
Chain of wild type and amino acid substituted PPO enzyme (Amaranthus tuberculatus, UniProt Q0NZW9, L397D/R128A) (Q0NZW9 1-534 R128A/L397D): as the sequence (Q0NZW9 1-534 F204I/T208S/F457M) above, with R128A, I204F, S208T, L397D, M457F counted along it
Chain of wild type and amino acid substituted PPO enzyme (Amaranthus tuberculatus, UniProt Q0NZW9, F420M/L397D) (Q0NZW9 1-534 L397D/F420M): as the sequence (Q0NZW9 1-534 F204I/T208S/F457M) above, with I204F, S208T, L397D, F420M, M457F counted along it
Chain of wild type and amino acid substituted PPO enzyme (Amaranthus tuberculatus, UniProt Q0NZW5) (Q0NZW5 entry or part of it): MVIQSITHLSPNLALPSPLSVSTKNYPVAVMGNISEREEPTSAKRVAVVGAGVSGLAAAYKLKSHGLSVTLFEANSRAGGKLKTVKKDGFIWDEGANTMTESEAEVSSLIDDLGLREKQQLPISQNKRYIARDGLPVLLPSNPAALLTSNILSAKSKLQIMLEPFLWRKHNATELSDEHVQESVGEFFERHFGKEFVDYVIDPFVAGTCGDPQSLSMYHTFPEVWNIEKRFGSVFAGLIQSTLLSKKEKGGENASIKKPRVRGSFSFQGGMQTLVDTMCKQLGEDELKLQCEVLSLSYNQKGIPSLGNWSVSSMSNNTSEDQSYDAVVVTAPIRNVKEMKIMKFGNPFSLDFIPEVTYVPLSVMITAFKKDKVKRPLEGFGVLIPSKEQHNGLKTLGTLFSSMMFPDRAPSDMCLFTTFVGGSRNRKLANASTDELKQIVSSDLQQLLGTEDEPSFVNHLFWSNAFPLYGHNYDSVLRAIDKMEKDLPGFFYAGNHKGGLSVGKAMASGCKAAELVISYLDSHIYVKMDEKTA

Compound: C#CCN1C(=O)C(F)(F)Oc2cc(F)c(-n3c(=O)n(C)c(=S)n(C)c3=O)cc21
- IC50 [1]: 2.12 nM
- IC50 [2]: 9.24e-08 M
- IC50 [3]: 3.87e-09 M
- IC50 [4]: 1.25e-10 M
- IC50 [5]: 4.57e-11 M
- IC50 [6]: 1.02e-09 M
- IC50 [7]: 3.33e-09 M
- IC50 [8]: 1.95e-10 M
- IC50 [9]: 1.01e-07 M
- IC50 [10]: 3.69e-08 M
- IC50 [11]: 5.52e-11 M
- IC50 [12]: 4.69e-09 M
- IC50 [13]: 9.68e-12 M
- IC50 [14]: 1.25e-08 M
- IC50 [15]: 1.05e-09 M
- IC50 [16]: 2.64e-11 M
- IC50 [17]: 2.38e-09 M
- IC50 [18]: 4.63e-08 M
- IC50 [19]: 4.21e-11 M and 1.7e-10 M
- IC50 [20]: 1.21e-08 M
- IC50 [21]: 2.1e-09 M
- IC50 [22]: 4.72e-09 M
- IC50 [23]: 7.52e-11 M
- IC50 [24]: 4.53e-09 M
- IC50 [25]: 5.54e-08 M
- IC50 [26]: 4.05e-07 M
- IC50 [27]: 8.23e-08 M
- IC50 [28]: 1.35e-11 M
- IC50 [29]: 2.34e-09 M
- IC50 [30]: 5.9e-09 M
- IC50 [31]: 4.26e-08 M
- IC50 [32]: 2.95e-08 M
- IC50 [33]: 3.41e-09 M
- IC50 [34]: 1.79e-09 M
- IC50 [35]: 1.29e-10 M
- IC50 [36]: 1.31e-08 M
- IC50 [37]: 2.88e-11 M

Compound: CC(C)N(C)S(=O)(=O)NC(=O)c1cc(-n2c(=O)cc(C(F)(F)F)n(C)c2=O)c(F)cc1Cl [saflufenacil]
- IC50 [1]: 1600 nM
- IC50 [4]: 4.08e-07 M
- IC50 [8]: 1.02e-10 M
- IC50 [9]: > 1e-05 M
- IC50 [14]: > 1e-05 M
- IC50 [19]: 5.11e-11 M
- IC50 [23]: 1.89e-11 M
- IC50 [29]: 8.48e-07 M
- IC50 [30]: ≥ 1e-05 M
- IC50 [32]: > 1e-05 M
- IC50 [35]: 5.89e-11 M
